Laboratory results: US7772235B2, “mGluR5 modulators” (Astrazeneca AB, priority 2006, dated 2010)
Several values for one entry are separate records, joined by “and”; a condition that tells them apart may be missing. Identical values can stand only once.

Columns and labels:
human mGluR5d = biological target: T1, human mGluR5d (Homo sapiens, UniProt P41594); assay: FLIPR assay of mGluR5 antagonism (intracellular calcium mobilization); format: cell-based; conditions: cells expressing human mGluR5d
T1 construct: expressed in transfected cells
T1 sequence (P41594 21-942 isoform P41594-3 limits assumed): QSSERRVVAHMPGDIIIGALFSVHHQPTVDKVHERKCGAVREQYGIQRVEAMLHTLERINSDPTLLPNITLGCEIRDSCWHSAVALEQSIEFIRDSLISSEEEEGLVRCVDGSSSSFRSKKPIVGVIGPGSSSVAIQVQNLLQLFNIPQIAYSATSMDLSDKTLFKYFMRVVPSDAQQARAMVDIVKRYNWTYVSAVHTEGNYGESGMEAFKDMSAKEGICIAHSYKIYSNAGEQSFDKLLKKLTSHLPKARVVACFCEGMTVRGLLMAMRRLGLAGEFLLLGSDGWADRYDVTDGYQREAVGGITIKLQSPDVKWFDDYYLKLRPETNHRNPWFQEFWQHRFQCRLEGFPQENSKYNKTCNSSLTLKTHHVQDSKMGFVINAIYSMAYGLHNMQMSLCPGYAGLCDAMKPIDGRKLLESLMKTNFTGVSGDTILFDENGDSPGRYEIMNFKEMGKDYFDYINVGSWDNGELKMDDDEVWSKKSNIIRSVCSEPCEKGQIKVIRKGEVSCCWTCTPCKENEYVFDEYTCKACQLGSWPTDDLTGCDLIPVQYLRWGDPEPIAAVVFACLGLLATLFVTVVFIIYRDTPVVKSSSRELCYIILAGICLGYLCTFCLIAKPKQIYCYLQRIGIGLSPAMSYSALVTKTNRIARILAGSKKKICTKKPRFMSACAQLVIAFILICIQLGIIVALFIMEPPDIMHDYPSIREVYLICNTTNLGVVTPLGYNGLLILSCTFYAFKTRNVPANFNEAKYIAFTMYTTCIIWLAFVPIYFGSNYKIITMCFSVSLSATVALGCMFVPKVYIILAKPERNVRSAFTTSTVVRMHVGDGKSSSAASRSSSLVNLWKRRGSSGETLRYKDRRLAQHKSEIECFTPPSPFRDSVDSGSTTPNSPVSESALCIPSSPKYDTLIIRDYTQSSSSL
From the text: The properties of the compounds of the invention can be analyzed using standard assays for pharmacological activity. Examples of glutamate receptor assays are well known in the art as described in for example Aramori et al., Neuron 8:757 (1992), Tanabe et al., Neuron 8:169 (1992), Miller et al., J. Neuroscience 15: 6103 (1995), Balazs, et al., J. Neurochemistry 69:151 (1997). The methodology described in these publications is incorporated herein by reference. Conveniently, the compounds of the invention can be studied by means of an assay (FLIPR) that measures the mobilization of intracellular calcium, [Ca^2+]i in cells expressing mGluR5 or another assay (IP3) that measures inositol phosphate turnover.
Cells expressing human mGluR5d as described in WO97/05252 are seeded at a density of 100,000 cells per well on collagen coated clear bottom 96-well plates with black sides and experiments are done 24 h following seeding. All assays are done in a buffer containing 127 mM NaCl, 5 mM KCl, 2 mM MgCl2, 0.7 mM NaH2PO4, 2 mM CaCl2, 0.422 mg/mL NaHCO3, 2.4 mg/mL HEPES, 1.8 mg/mL glucose and 1 mg/mL BSA Fraction IV (pH 7.4). Cell cultures in the 96-well plates are loaded for 60 minutes in the above mentioned buffer containing 4 μM of the acetoxymethyl ester form of the fluorescent calcium indicator fluo-3 (Molecular Probes, Eugene, Oreg.) in 0.01% pluronic acid (a proprietary, non-ionic surfactant polyol—CAS Number 9003-11-6). Following the loading period the fluo-3 buffer is removed and replaced with fresh assay buffer. FLIPR experiments are done using a laser setting of 0.800 W and a 0.4 second CCD camera shutter speed with excitation and emission wavelengths of 488 nm and 562 nm, respectively. Each experiment is initiated with 160 μl of buffer present in each well of the cell plate. A 40 μl addition from the antagonist plate was followed by a 50 μL addition from the agonist plate. A 30 minute interval separates the antagonist and agonist additions. The fluorescence signal is sampled 50 times at 1 second intervals followed by 3 samples at 5 second intervals immediately after each of the two additions. Responses are measured as the difference between the peak height of the response to agonist, less the background fluorescence within the sample period. IC50 determinations are made using a linear least squares fitting program.

[1] = Determination of brain to plasma ratio (B/P ratio) in rat; format: in vivo, female Sprague Dawley rats; conditions: female, Sprague-Dawley, read-out: B/P Ratio (drug in brain over drug in plasma)
Method: Brain to plasma ratios are estimated in female Sprague Dawley rats. The compound is dissolved in water or another appropriate vehicle. For determination of brain to plasma ratio the compound is administrated as a subcutaneous, or an intravenous bolus injection, or an intravenous infusion, or an oral administration. At a predetermined time point after the administration a blood sample is taken with cardiac puncture. The rat is terminated by cutting the heart open, and the brain is immediately retained. The blood samples are collected in heparinized tubes and centrifuged within 30 minutes, in order to separate the plasma from the blood cells. The plasma is transferred to 96-well plates and stored at −20° C. until analysis. The brains are divided in half, and each half is placed in a pre-tarred tube and stored at −20° C. until analysis. Prior to the analysis, the brain samples are thawed and 3 mL/g brain tissue of distilled water is added to the tubes. The brain samples are sonicated in an ice bath until the samples are homogenized. Both brain and plasma samples are precipitated with acetonitrile. After centrifugation, the supernatant is diluted with 0.2% formic acid. […] After reconstitution of the residuals the samples are ready for injection onto the HPLC column.

Row | IC50 (human mGluR5d) | Kp [1] | SMILES
1 | 9 nM |  | C[C@@H](Oc1nnc(-c2cc[nH]c(=O)c2)n1C)c1nnn(-c2cccc(Cl)c2)n1 [Example 38.2, 4-(5-{(1R)-1-[2-(3-Chlorophenyl)-2H-tetrazol-5-yl]ethoxy}-4-methyl-4H-1,2,4-triazol-3-yl)pyridin-2(1H)-one]
2 | 6 nM |  | C[C@@H](Oc1nnc(-c2cn[nH]c(=O)c2)n1C)c1nnn(-c2cccc(Cl)c2)n1 [Example 38.3, 5-(5-{(1R)-1-[2-(3-Chlorophenyl)-2H-tetrazol-5-yl]ethoxy}-4-methyl-4H-1,2,4-triazol-3-yl)pyridazin-3(2H)-one]
3 | 15 nM |  | C[C@@H](Oc1nnc(-c2cn[nH]c(=O)c2)n1C)c1noc(-c2cccc(Cl)c2)n1 [Example 38.4, 5-(5-{(1R)-1-[5-(3-Chlorophenyl)-1,2,4-oxadiazol-3-yl]ethoxy}-4-methyl-4H-1,2,4-triazol-3-yl)pyridazin-3(2H)-one]
4 | 8 nM |  | C[C@@H](Oc1nnc(-c2cn[nH]c(=O)c2)n1C)c1cc(-c2cccc(Cl)c2)on1 [Example 38.5, 5-(5-{(1R)-1-[5-(3-Chlorophenyl)isoxazol-3-yl]ethoxy}-4-methyl-4H-1,2,4-triazol-3-yl)pyridazin-3(2H)-one]
5 | 7 nM |  | Cc1cccc(-n2nnc([C@@H](C)Oc3nnc(-c4cn[nH]c(=O)c4)n3C)n2)c1 [Example 38.6, 5-(4-Methyl-5-{(1R)-1-[2-(3-methylphenyl)-2H-tetrazol-5-yl]ethoxy}-4H-1,2,4-triazol-3-yl)pyridazin-3(2H)-one]
6 | 12 nM |  | Cc1cccc(-c2cc([C@@H](C)Oc3nnc(-c4cn[nH]c(=O)c4)n3C)no2)c1 [Example 38.7, 5-(4-Methyl-5-{(1R)-1-[5-(3-methylphenyl)isoxazol-3-yl]ethoxy}-4H-1,2,4-triazol-3-yl)pyridazin-3(2H)-one]
7 |  | 0.8 | C[C@@H](Oc1nnc(-c2ccncc2)n1C)c1cc(-c2cccc(Cl)c2)on1 [reference compound]

Continued, compound first:

Row | SMILES | IC50 (human mGluR5d) | Kp [1]
8 | C[C@@H](Oc1nnc(-c2ccn(C)c(=O)c2)n1C)c1cc(-c2cccc(Cl)c2)on1 [Example 36.1, 4-(5-{(1R)-1-[5-(3-Chlorophenyl)isoxazol-3-yl]ethoxy}-4-methyl-4H-1,2,4-triazol-3-yl)-1-methylpyridin-2(1H)-one] | 19 nM | 
9 | C[C@@H](Oc1nnc(-c2ccn(C)c(=O)c2)n1C)c1noc(-c2cccc(Cl)c2)n1 [Example 36.2, 4-(5-{(1R)-1-[5-(3-Chlorophenyl)-1,2,4-oxadiazol-3-yl]ethoxy}-4-methyl-4H-1,2,4-triazol-3-yl)-1-methylpyridin-2(1H)-one] | 20 nM | 
10 | Cn1c(OCc2cc(-c3cccc(Cl)c3)on2)nnc1-c1cc[nH]c(=O)c1 [Example 37.2, 4-(5-{[5-(3-chlorophenyl)isoxazol-3-yl]methoxy}-4-methyl-4H-1,2,4-triazol-3-yl)pyridin-2(1H)-one] | > 3000 nM and 1580 nM | 
11 | C[C@@H](Oc1nnc(-c2cc[nH]c(=O)c2)n1C)c1cc(-c2cccc(Cl)c2)on1 [Example 37.3, 4-(5-{(1R)-1-[5-(3-Chlorophenyl)isoxazol-3-yl]ethoxy}-4-methyl-4H-1,2,4-triazol-3-yl)pyridin-2(1H)-one] | 10 nM | 0.02
12 | C[C@@H](Oc1nnc(-c2cc[nH]c(=O)c2)n1C)c1noc(-c2cccc(Cl)c2)n1 [Example 38.1, 4-(5-{(R)-1-[5-(3-Chloro-phenyl)-[1,2,4]oxadiazol-3-yl]-ethoxy}-4-methyl-4H-[1,2,4]triazol-3-yl)-1H-pyridin-2-one] | 13 nM | 
